For data set [1], the system named is M. tuberculosis (ATCC 25177). As to the kind of experiment: BACTEC 460 TB radiometric growth inhibition bioassay (bacteriostatic activity). It is filed as cell-based, Mycobacterium tuberculosis. The following applies: final concentration of 0.1 mg/ml in Bactec 7H12 B+ medium; percent inhibition from growth index.
Another data set is described as follows: in vivo. The following applies: both sexes, mouse, ip, white mice, intraperitoneal injection of 2% solution in starch, 14 day observation. As for the experimental part: Animal Toxicity Bioassay. Acute toxicity was studied on white mice of both sexes with weight ranging between 18-26 grams under intraperitoneal injection of 2% solution of tested compound in starch (the compound was dissolved in starch slime and injected) on the basis of 0.1 ml of solution per 10 g of the animal weight. Each dose was tested on the group of 6 animals that were observed during 14 day period. (This method was approved by the Pharmacology committee of Russian Ministry of Health and has been widely used since 1968.) Averaged lethal dose (LD50) of the compound was computed using results of experiments on 5-7 groups of animals using the method of Litchfield and Wilkinson. (Belenkii M. L. “Elements of quantative determination of the pharmacological effect,” Leningrad, 1963, 71 pages).
The acute toxicity of isoniazid is as following: LCLo (lowest published lethal concentration) for man is 100 mg/kg. […] All toxicity information about isoniazid can also be found on the web site: http://ntp-server.niehs.nih.gov/htdocs/Chem H&S/NTP Chem5/Radian54-85-3.html

Another data set can be described thus: Stability in solution. The following applies: decomposes quickly when the solution is heated or stored for a long time, with formation of OF-12. Type of data set: physicochemical.
In the next data set the test system is man. The following applies: cited from earlier work.

Each structure is given as a SMILES string. Where only a bound is given, the exact number is not on record here.

The LD50 is the dose expected to kill half of the subjects tested. Consider `CCOc1ccc(C(=O)C=C(NN=C2c3ccccc3-c3ccccc32)C(=O)OC)cc1` [OF-12, 4-(4-Ethoxyphenyl)-2-(N′-fluoren-9-ylidenehydrazino)-4-oxobut-2-enoic acid methyl ester], for which the “percent activity against Mycobacterium tuberculosis” value (“percent activity” for short) in data set [1] was determined as 81%. The LD50 at 14 day in the data set “in vivo” was over 1500 mg/kg.
Consider `CCOc1ccc(C(=O)CC(O)(NN=C2c3ccccc3-c3ccccc32)C(=O)OC)cc1` (centres unmarked) [OF-13, 4-(4-Ethoxyphenyl)-2-(N′-fluoren-9-ylidenehydrazino)-2-hydroxy-4-oxobutyric acid methyl ester], for which, in data set [1], the “percent activity” value is recorded as 88%. The LD50 at 14 day in the data set “in vivo” was over 1500 mg/kg. The Stability in solutions result in the data set “Stability in solution” was “not stable in solutions”.
Turning to `COC(=O)C(=CC(=O)C(C)(C)C)Nc1ccc(Br)cc1` [OF-15, 2-(4-Bromophenylamino)-5,5-dimethyl-4-oxohex-2-enoic acid methyl ester], the “percent activity” value in data set [1] was 98%. Moreover, the LD50 at 14 day in “in vivo” was over 1500 mg/kg.
`NNC(=O)c1ccncc1` [isoniazid, isonicotinic acid hydrazide]: in the data set with man (adults, acute ingestion), the “acute ingestion leading to mild toxicity” value was at least 1.5 g, the “ingestion that may be fatal” value was 6 to 10 g and the “ingestion usually fatal if not appropriately treated” value is 15 g. Also, the “LCLo (lowest published lethal concentration)” value in the data set with man (man) is 100 mg/kg.

The values are drawn from patent US6683110B1, “Methyl esters of substituted 4-oxo-2-butenoic acid for treatment of tuberculosis” (University of Central Florida, priority 2001, dated 2004).
